Reference: US5475007A, “1,2,3,4-tetrahydroquinoline-2,3,4-trione-3 or 4-oximes and the use thereof” (priority 1993, dated 1995)
Like-named read-outs stand apart in the source and are kept apart here.

Columns and labels:
[1] = test system: glycine binding site of the NMDA receptor; settings: cited from earlier work
[2] = in words; cited from earlier work
[3] = in words; cited from earlier work; remark: listed apart in the source
[4] = cited from earlier work; for PCP-like behavioral side effects: in words
[5] = target: glycine binding site of the NMDA receptor (Rattus norvegicus, UniProt P35439); assay: 1 μM glycine-stimulated [^3 H]-MK801 binding assay (glycine binding assay); settings: for potency relative to DCK: DCK = 5,7-dichlorokynurenic acid; for binding to the glycine receptor / selectivity for the glycine receptor: in words
[6] = mouse maximum electroshock seizure model (i.p.); type: in vivo; settings: 70 mg/kg i.p. in DMSO, 1 hour before stimulus, 10 mice
Method: 5,7-Dichloro-1,2,3,4-tetrahydroquinoline-2,3,4-trione-3-oxime was evaluated for anticonvulsant activity after i.p. administration in the mouse maximum electroshock seizure model. Mice, 30-35 g (male) were injected i.p. with 70 mg/kg of the drug dissolved in DMSO (1 ul/g). Ten mice each were used in the drug and control groups. The control group was injected with an equal volume of DMSO. Seizures were elicited by stimulation with corneal electrodes. The stimulation parameters for eliciting the seizures were as follows: 50 mA, 60 pulses/second square wave, 0.8 ms pulse width, 0.2 sec length of stimulus. Under these conditions, 100% of control animals developed tonic hindlimb extension immediately after the corneal electrical stimulation. A Hugo Basile electroshock seizure stimulator was used for these experiments. The seizure stimulus was applied 1 hour after injection of the drug.

PCP receptor = settings: Wong et al. 1986; cited from earlier work
[7] = pigeons; cited from earlier work
[8] = Table 1, glycine binding site, read-out: Ki Gly

NC1CCN(O)C1=O (racemic) [HA-966]
agonism and affinity at the glycine binding site ([1]; in words): partial agonist with micromolar affinity for the glycine binding site | penetration of the blood/brain barrier [2]: sufficiently penetrates the blood/brain barrier

O=C(O)c1cc(O)c2c(Cl)cc(Cl)cc2n1 [5,7-dichlorokynurenic acid]
receptor binding affinity in vitro ([1]; in words): relatively high receptor binding affinity in vitro

O=C(O)c1cc(O)c2ccc(Cl)cc2n1 [7-Cl-kynurenic acid]
receptor binding affinity in vitro ([1]; in words): relatively high receptor binding affinity in vitro | penetration of the blood/brain barrier [2]: cannot penetrate the blood/brain barrier

O=C(O)[C@@H]1C[C@H](CP(=O)(O)O)CCN1 [CGS 19755]
neuroprotective efficacy [3]: have neuroprotective efficacy | PCP-like behavioral side effects [4]: adverse PCP-like behavioral side effects

O=C1Nc2ccccc2C(=NO)C1=O [Compound 14a, 1,2,3,4-Tetrahydroquinoline-2,3,4-trione-4-oxime]
IC50 ([5]; 1 μM glycine): 18400 nM | potency relative to DCK [5]: 14 % of DCK | Ki [5, 8]: 1700 nM | binding to the glycine receptor [5]: high binding | selectivity for the glycine receptor [5]: highly selective

O=C1Nc2ccccc2C(=O)C1=NO [Compound 17a, 1,2,3,4-Tetrahydroquinoline-2,3,4-trione-3-oxime]
Ki [5]: 20000 nM | potency relative to DCK [5]: 1.3 % of DCK | binding to the glycine receptor [5]: high binding | selectivity for the glycine receptor [5]: highly selective

O=C1Nc2cc(Cl)cc(Cl)c2C(=O)C1=NO [Compound 17b, 5,7-Dichloro-1,2,3,4-tetrahydroquinoline-2,3,4-trione-3-oxime]
Ki [5]: 20 nM | potency relative to DCK [5]: 1126 % of DCK | times more active than the unsubstituted compound 17a ([5]; Ki ratio versus 17a): about 1000 times | prevention of seizures [6]: prevented seizures from occurring in out of 10 animals

O=C1Nc2cc(Cl)c(Cl)cc2C(=O)C1=NO [Compound 17c, 6,7-Dichloro-1,2,3,4-tetrahydroquinoline-2,3,4-trione-3-oxime]
Ki [5]: 50 nM | potency relative to DCK [5]: 439 % of DCK

O=C1Nc2ccc(Cl)c(Cl)c2C(=O)C1=NO [Compound 17d, 5,6-Dichloro-1,2,3,4-tetrahydroquinoline-2,3,4-trione-3-oxime]
Ki [5]: 360 nM | potency relative to DCK [5]: about 55 % of DCK

O=C1Nc2cc(Cl)c(Cl)c(Cl)c2C(=O)C1=NO [Compound 17e, 5,6,7-Trichloro-1,2,3,4-tetrahydroquinoline-2,3,4-trione-3-oxime]
Ki [5]: 50 nM | potency relative to DCK [5]: about 400 % of DCK

CC(=O)ON=C1C(=O)Nc2cc(Cl)cc(Cl)c2C1=O [Compound 18b, 5,7-Dichloro-1,2,3,4-tetrahydroquinoline-2,3,4-trione-3-acetyloxime]
potency relative to DCK [5]: 142 % of DCK | Ki [5, 8]: 150 nM | Ki ([5]; glycine/NMDA receptor, read-out: Ki value): 160 nM

O=C(O)[C@@H]1C[C@H]2C[C@@H](CP(=O)(O)O)CC[C@H]2CN1 [LY274614]
neuroprotective efficacy [3]: have neuroprotective efficacy

C[C@]12N[C@H](Cc3ccccc31)c1ccccc12 [MK-801]
neuroprotective efficacy [3]: neuroprotective efficacy both in vitro and in vivo | PCP-like behavioral side effects [4]: adverse PCP-like behavioral side effects | Kd (PCP receptor): ~3 nM

c1ccc(C2(N3CCCCC3)CCCCC2)cc1 [PCP, phencyclidine]
neuroprotective efficacy [3]: neuroprotective efficacy both in vitro and in vivo | behavioral excitation (hyperlocomotion) ([4]; rodents): behavioral excitation | katalepsy [7]: characteristic katalepsy in pigeons

COc1ccc2c(c1)[C@]13CCCC[C@@H]1[C@H](C2)N(C)CC3 [dextromethorphan]
neuroprotective efficacy [3]: neuroprotective efficacy both in vitro and in vivo

NCC(=O)O [glycine]
Kd ([1]; used in Cheng and Prusoff equation, read-out: known affinity of glycine for the glycine binding site): 100 nM

O=C(O)c1cc2ccccc2[nH]1 [indole-2-carboxylic acid]
receptor binding affinity in vitro ([1]; in words): relatively high receptor binding affinity in vitro | penetration of the blood/brain barrier [2]: cannot penetrate the blood/brain barrier

CNC1(c2ccccc2Cl)CCCCC1=O (centres unmarked) [ketamine]
neuroprotective efficacy [3]: neuroprotective efficacy both in vitro and in vivo
